According to patent US6812028B1, “Embryogenesis and plant regeneration from microspores” (University of Guelph, priority 1999, dated 2004):

How the values were obtained:
[1] = test system: barley genotype Igri microspores; assay: Effect of duration of pretreatment on embryo formation; assay type: cell-based
Protocol: The effect of the duration of pre-treatment on embryogenesis from barley genotype Igri for spikes incubated with 0.3 mol/L mannitol at 4° C. Table 3 illustrates that as few as 4 days of pre-treatment drastically effects the number of embryos formed from microspores. Although the number formed increases up to 28 days of pre-treatment, only a 4 day period is required to achieve beneficial effects. […] However, duration of pre-treatment did appear to effect Oxbow as previously mentioned, and as illustrated in Table 2.

barley microspores = assay: Embryo induction and regeneration following pretreatment of barley genotypes; assay type: cell-based; conditions: for % embryoid Regeneration: 500 embryos per plate; for Embryoids: average from 3 plates
Protocol: Embryogenesis from thirty different barley genotypes was conducted according to the procedure in accordance with the present invention. Between 10,000 to 15,000 embryos were usually produced per plate. Table 2 illustrates some counts of embryos based on an average of three replications (plates). Not all thirty genotypes were counted. However, response of each genotype was judged on the basis of the appearance of plates after two weeks and again after 4 to 5 weeks. Random samples of 500 embryos were taken from the counted plates and placed on regeneration media to estimate the embryo regeneration ability. […] FIG. 4 illustrates barley c.v. Igri embryo development at 3 weeks (FIG. 4(a)) and 5 weeks (FIG. 4(b)) on filter paper placed on solidified induction media.
Three different pre-treatments were compared within the genotype Igri and no apparent differences were observed relative to embryo induction or regeneration (Table 2). Lina normally responds well in microspore culture following a mannitol pre-treatment, but in this study using the combination of cold plus mannitol for 7 days, response was low. Thus, embryo formation was also counted in Lina when a 21 day cold pretreatment had been used and this response was more typical of Lina (Table 2). The regeneration response from the two pretreatment methods on Lina was similar. The frequency of fertile doubled haploids among the Lina progeny following the two pretreatments was not different, namely 79% after the combination 7-day treatment and 83% after the 21 day cold pretreatment.
Embryogenesis was visually assessed in barley winter genotypes; OAC Elmira, GBC776, GBC779, GBC780 and GBC781, and spring genotypes, Trinity, Cooper, Golden Promise, Disa, Morex, Excel, Elrose, Bruce, Rodeo, H936 and Sabarilis. […] Under these conditions about 2,000 plants per 10^5 microspores, or about 200 plants per spike on responsive genotypes has been observed.

[2] = GBC 777, pretreatment 4 d 0.3M man. 4° C.
[3] = GBC 778, pretreatment 4 d 3.3M man. 4° C.
[4] = Harrington, pretreatment 3 d 0.3M man. 4° C.
[5] = Igri, pretreatment 4 d 0.3M man. 4° C.
[6] = Igri, pretreatment 4 d 0.3M man. 25° C.
[7] = Lina, pretreatment 7 d 0.3M man 4° C.
[8] = Manley, pretreatment 4 d 0.3M man. 4° C.
[9] = Oxbow, pretreatment 21 d 0.3M man. 4° C.
[10] = cold plus mannitol pre-treatment 3 to 4 days, 0.3 mol/liter mannitol at 4° C., responsive genotypes

OC[C@@H](O)[C@@H](O)[C@H](O)[C@H](O)CO [mannitol]
# Embryos formed ([1]; 4 d pretreatment of spikes at 4° C. in 0.3 mol/liter mannitol): 9579 | # Embryos formed ([1]; 7 d pretreatment of spikes at 4° C. in 0.3 mol/liter mannitol): 9693 | # Embryos formed ([1]; 14 d pretreatment of spikes at 4° C. in 0.3 mol/liter mannitol): 8981 | # Embryos formed ([1]; 21 d pretreatment of spikes at 4° C. in 0.3 mol/liter mannitol): 9692 | # Embryos formed ([1]; 28 d pretreatment of spikes at 4° C. in 0.3 mol/liter mannitol): 10213 | % embryoid Regeneration (barley microspores; [2]): 89% | Embryoids (barley microspores; [2]): 14133 | % embryoid Regeneration (barley microspores; [3]): 84% | Embryoids (barley microspores; [3]): 7667 | Embryoids (barley microspores; GBC 782, pretreatment 3 d 0.3M man. 4° C.): 14496 | Embryoids (barley microspores; GBC 783, pretreatment 3 d 0.3M man. 4° C.): 11360 | % embryoid Regeneration (barley microspores; [4]): 36% | Embryoids (barley microspores; [4]): 5533 | % embryoid Regeneration (barley microspores; [5]): 97% | Embryoids (barley microspores; [5]): 12380 | % embryoid Regeneration (barley microspores; [6]): 88% | Embryoids (barley microspores; [6]): 13504 | frequency of fertile doubled haploids among the Lina progeny (barley microspores; Lina, combination of cold plus mannitol for 7 days): 79% | % embryoid Regeneration (barley microspores; [7]): 81% | Embryoids (barley microspores; [7]): 8921 | % embryoid Regeneration (barley microspores; [8]): 74% | Embryoids (barley microspores; [8]): 11360 | % embryoid Regeneration (barley microspores; [9]): 58% | Embryoids (barley microspores; [9]): 10810 | plants per 10^5 microspores (barley microspores; [10]): about 2,000 plants per 10^5 microspores | plants per spike (barley microspores; [10]): about 200 plants per spike
